# What was measured:
# HiBit-BRM fusion protein = target: T1, HiBit-BRM fusion protein (Homo sapiens, UniProt P51531); assay: HiBiT-BRM cell-based degradation assay (Nano-Glo HiBiT Lytic Detection, 24 h); settings: HeLa cell line expressing HiBiT-BRM; for DC50: read-out: BRM HiBit Degradation IC50
# T1 construct: expressed in transfected cells
# Summary of the method: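 Percent BRM loss was derived from HiBiT luminescence relative to DMSO-treated cells and cells given 2 μM of a known BRM/BRG1 degrader. Treatment lasted 24 h in HiBiT-BRM HeLa cells, with a top final concentration of 30 μM.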
# [1] = target: T2, HiBit-BRG1 fusion protein (Homo sapiens, UniProt P51532); assay: HiBiT-BRG1 cell-based degradation assay (Nano-Glo HiBiT Lytic Detection, 24 h); settings: HeLa cell line expressing HiBit-BRG1 and LgBit; for Dmax: read-out: BRG1 HiBit Degradation Maximum (%); for DC50: read-out: BRMG1 HiBit Degradation IC50
# T2 construct: expressed in transfected cells
# Summary of the method: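 Stable HeLa line co-expressing HiBit-BRG1 and LgBit, 5000 cells/well, treated 24 h in a tissue culture incubator. Lysed with Nano-Glo HiBiT lytic reagent, luminescence read. % degradation normalized to DMSO (high control) and 2 μM reference BRM/BRG1 degrader (low control).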
# T2 sequence (P51532 whole entry, the tested form may be a part): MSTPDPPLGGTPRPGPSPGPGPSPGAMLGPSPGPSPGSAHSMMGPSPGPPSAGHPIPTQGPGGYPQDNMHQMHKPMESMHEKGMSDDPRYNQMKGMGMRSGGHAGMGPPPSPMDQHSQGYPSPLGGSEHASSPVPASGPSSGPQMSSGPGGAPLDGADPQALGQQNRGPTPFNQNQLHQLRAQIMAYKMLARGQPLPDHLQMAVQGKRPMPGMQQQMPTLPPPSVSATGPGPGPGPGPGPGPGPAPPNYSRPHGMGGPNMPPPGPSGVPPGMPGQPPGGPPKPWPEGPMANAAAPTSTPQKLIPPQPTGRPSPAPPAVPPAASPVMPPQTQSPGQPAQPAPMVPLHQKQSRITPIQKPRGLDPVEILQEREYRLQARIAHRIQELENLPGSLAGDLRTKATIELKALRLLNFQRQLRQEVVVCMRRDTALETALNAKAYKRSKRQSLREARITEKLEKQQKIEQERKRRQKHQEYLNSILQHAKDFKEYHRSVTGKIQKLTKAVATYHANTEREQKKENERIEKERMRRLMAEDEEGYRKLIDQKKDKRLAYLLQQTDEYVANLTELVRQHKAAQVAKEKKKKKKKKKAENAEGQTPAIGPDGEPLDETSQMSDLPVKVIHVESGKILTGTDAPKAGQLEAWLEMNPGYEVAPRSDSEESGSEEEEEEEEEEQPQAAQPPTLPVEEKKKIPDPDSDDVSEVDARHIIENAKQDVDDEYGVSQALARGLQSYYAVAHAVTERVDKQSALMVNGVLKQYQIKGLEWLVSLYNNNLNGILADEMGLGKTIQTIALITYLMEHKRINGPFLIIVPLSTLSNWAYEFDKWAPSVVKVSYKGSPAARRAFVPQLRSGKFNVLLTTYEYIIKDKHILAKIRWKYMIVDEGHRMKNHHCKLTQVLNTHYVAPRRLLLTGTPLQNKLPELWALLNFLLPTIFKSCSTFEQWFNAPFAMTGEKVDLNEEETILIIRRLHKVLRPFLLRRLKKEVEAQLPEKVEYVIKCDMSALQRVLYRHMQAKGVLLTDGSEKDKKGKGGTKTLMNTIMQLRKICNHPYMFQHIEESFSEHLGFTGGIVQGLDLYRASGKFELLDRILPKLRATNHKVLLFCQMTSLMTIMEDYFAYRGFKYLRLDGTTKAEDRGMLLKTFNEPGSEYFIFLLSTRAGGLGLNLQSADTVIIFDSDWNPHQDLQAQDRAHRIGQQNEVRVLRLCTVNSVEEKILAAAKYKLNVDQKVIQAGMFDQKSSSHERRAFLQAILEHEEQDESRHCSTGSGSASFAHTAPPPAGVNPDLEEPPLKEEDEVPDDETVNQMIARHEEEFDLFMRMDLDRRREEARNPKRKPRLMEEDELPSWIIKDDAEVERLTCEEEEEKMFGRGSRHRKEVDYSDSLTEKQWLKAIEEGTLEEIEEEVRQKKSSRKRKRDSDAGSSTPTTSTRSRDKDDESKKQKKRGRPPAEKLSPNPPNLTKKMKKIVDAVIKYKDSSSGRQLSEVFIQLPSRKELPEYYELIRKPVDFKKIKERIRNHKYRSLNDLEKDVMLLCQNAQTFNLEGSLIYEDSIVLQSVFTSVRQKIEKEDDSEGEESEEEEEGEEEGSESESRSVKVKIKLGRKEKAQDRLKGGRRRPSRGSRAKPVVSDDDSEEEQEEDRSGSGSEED
# T1 sequence (P51531 whole entry, the tested form may be a part): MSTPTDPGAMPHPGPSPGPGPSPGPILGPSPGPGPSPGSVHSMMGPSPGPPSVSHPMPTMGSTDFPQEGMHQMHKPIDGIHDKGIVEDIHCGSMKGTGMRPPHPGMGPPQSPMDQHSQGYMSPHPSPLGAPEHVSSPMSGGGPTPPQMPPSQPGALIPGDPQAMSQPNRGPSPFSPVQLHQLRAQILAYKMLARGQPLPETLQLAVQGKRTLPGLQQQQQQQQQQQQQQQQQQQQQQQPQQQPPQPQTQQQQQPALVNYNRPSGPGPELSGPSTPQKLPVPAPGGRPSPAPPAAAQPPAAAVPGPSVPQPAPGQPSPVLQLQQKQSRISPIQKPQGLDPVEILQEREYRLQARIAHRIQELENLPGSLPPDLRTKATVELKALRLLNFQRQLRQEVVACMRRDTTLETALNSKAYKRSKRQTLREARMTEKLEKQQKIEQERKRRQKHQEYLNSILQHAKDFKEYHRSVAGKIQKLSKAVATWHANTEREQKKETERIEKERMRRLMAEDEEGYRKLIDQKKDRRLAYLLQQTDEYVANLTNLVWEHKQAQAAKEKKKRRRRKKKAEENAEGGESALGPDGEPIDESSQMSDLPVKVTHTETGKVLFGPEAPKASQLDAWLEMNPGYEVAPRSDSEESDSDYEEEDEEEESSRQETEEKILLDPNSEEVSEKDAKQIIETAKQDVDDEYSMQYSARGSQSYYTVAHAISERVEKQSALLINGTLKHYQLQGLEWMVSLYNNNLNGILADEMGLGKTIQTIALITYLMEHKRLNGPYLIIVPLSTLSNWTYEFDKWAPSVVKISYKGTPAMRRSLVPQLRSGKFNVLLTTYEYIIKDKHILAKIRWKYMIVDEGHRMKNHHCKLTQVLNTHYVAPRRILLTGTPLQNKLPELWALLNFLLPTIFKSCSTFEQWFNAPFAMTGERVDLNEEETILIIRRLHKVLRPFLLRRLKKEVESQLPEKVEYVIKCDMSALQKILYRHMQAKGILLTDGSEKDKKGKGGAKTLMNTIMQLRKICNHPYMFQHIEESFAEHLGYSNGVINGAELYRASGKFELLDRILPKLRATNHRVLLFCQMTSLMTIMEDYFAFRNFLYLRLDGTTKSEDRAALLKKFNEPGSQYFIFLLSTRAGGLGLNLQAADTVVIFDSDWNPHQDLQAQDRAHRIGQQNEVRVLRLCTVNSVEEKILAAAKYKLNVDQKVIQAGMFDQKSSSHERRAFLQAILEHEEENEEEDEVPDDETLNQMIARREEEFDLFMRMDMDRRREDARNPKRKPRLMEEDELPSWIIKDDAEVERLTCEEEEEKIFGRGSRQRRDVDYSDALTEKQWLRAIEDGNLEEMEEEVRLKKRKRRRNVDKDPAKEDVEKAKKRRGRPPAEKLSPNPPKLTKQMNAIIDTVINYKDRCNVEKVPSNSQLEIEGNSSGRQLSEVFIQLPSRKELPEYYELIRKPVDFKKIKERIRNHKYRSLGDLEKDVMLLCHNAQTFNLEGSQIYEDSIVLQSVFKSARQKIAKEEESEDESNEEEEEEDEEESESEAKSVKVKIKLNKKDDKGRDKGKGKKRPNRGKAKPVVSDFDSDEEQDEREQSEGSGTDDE
Compound,DC50 (HiBit-BRM fusion protein) [nM],Dmax [1] [%],DC50 [1] [nM],BRM HiBit Degradation Maximum (%) (HiBit-BRM fusion protein)
"Cc1ncsc1-c1ccc([C@H](C)NC(=O)[C@@H]2C[C@@H](O)CN2C(=O)[C@@H](c2cc(OCCCN3C[C@@H]4[C@H](C3)[C@H]4c3c(C)[nH]c4nnc(-c5ccccc5O)cc34)no2)C(C)C)cc1 (racemic) [Compound 128, (2S,4R)-4-hydroxy-1-((R)-2-(3-(3-((1R,5S,6S)-6-(3-(2-hydroxyphenyl)-6-methyl-7H-pyrrolo[2,3-c]pyridazin-5-yl)-3-azabicyclo[3.1.0]hexan-3-yl)propoxy)isoxazol-5-yl)-3-methylbutanoyl)-N-((S)-1-(4-(4-methylthiazol-5-yl)phenyl)ethyl)pyrrolidine-2-carboxamide]",< 10,> 75,> 10,A (“A” indicates maximum degradation ≥ 75%)
"Cc1ncsc1-c1ccc([C@H](C)NC(=O)[C@@H]2C[C@@H](O)CN2C(=O)[C@@H](c2cc(OCCN3C[C@@H]4[C@H](C3)[C@H]4c3[nH]c4nnc(-c5cc(F)cc(F)c5O)cc4c3C)no2)C(C)C)cc1 (racemic) [Compound 125, (2S,4R)-1-((R)-2-(3-(2-((1R,5S,6R)-6-(3-(3,5-difluoro-2-hydroxyphenyl)-5-methyl-7H-pyrrolo[2,3-c]pyridazin-6-yl)-3-azabicyclo[3.1.0]hexan-3-yl)ethoxy)isoxazol-5-yl)-3-methylbutanoyl)-4-hydroxy-N-((S)-1-(4-(4-methylthiazol-5-yl)phenyl)ethyl)pyrrolidine-2-carboxamide]",> 10,< 50,,A (“A” indicates maximum degradation ≥ 75%)
"CC(C)[C@H](C(=O)N1C[C@H](O)C[C@H]1C(=O)N[C@@H](C)c1ccc(-c2ccccc2F)cc1)c1cc(OCCN2CC(c3cc4cc(-c5ccccc5O)nnc4[nH]3)C2)no1 (single isomer, unassigned) [Compound 117]",,< 50,,C (“C” indicates maximum degradation < 50%)
"Cc1ncsc1-c1ccc([C@H](C)NC(=O)[C@@H]2C[C@@H](O)CN2C(=O)[C@@H](c2cc(OCCN3CC(Oc4c[nH]c5nnc(-c6ccccc6O)cc45)C3)no2)C(C)C)cc1 (racemic) [Compound 139, (2S,4R)-4-hydroxy-1-[(2R)-2-{3-[2-(3-{[3-(2-hydroxyphenyl)-7H-pyrrolo[2,3-c]pyridazin-5-yl]oxy}azetidin-1-yl)ethoxy]-1,2-oxazol-5-yl}-3-methylbutanoyl]-N-[(1S)-1-[4-(4-methyl-1,3-thiazol-5-yl)phenyl]ethyl]pyrrolidine-2-carboxamide]",> 100,< 50,,B (“B” indicates maximum degradation ≥ 50%)
"Cc1ncsc1-c1ccc(CNC(=O)[C@@H]2C[C@@H](O)CN2C(=O)[C@@H](NC(=O)C2(F)CC2)C(C)(C)C)c(OCCN2CC(c3cc4cc(-c5ccccc5O)nnc4[nH]3)C2)c1 (racemic) [Compound 63, (2S,4R)-1-((S)-2-(1-fluorocyclopropane-1-carboxamido)-3,3-dimethylbutanoyl)-4-hydroxy-N-(2-(2-(3-(3-(2-hydroxyphenyl)-7H-pyrrolo[2,3-c]pyridazin-6-yl)azetidin-1-yl)ethoxy)-4-(4-methylthiazol-5-yl)benzyl)pyrrolidine-2-carboxamide]",,< 50,,C (“C” indicates maximum degradation < 50%)
"Cc1ncsc1-c1ccc(CNC(=O)[C@@H]2C[C@@H](O)CN2C(=O)[C@@H](NC(=O)CCCCCCCCCCCCCC(=O)N2CC(c3cc4cc(-c5ccccc5O)nnc4[nH]3)C2)C(C)(C)C)cc1 [Compound 20, (2S,4R)-4-hydroxy-1-((S)-2-(15-(3-(3-(2-hydroxyphenyl)-7H-pyrrolo[2,3-c]pyridazin-6-yl)azetidin-1-yl)-15-oxopentadecanamido)-3,3-dimethylbutanoyl)-N-(4-(4-methylthiazol-5-yl)benzyl)pyrrolidine-2-carboxamide]",,< 50,,C (“C” indicates maximum degradation < 50%)
"Cc1ncsc1-c1ccc([C@H](C)NC(=O)[C@@H]2C[C@@H](O)CN2C(=O)[C@@H](c2cc(CN3CCc4[nH]c5nnc(-c6ccccc6O)cc5c4C3)no2)C(C)C)cc1 (single isomer, unassigned) [Compound 136]",,< 50,,C (“C” indicates maximum degradation < 50%)
"Cc1ncsc1-c1ccc([C@H](C)NC(=O)[C@@H]2C[C@@H](O)CN2C(=O)[C@@H](c2cc(N3CCN(C(=O)N4CC(c5cc6cc(-c7ccccc7O)nnc6[nH]5)C4)CC3)no2)C(C)C)cc1 (racemic) [Compound 124, (2S,4R)-4-hydroxy-1-[(2R)-2-[3-(4-{3-[3-(2-hydroxyphenyl)-7H-pyrrolo[2,3-c]pyridazin-6-yl]azetidine-1-carbonyl}piperazin-1-yl)-1,2-oxazol-5-yl]-3-methylbutanoyl]-N-[(1S)-1-[4-(4-methyl-1,3-thiazol-5-yl)phenyl]ethyl]pyrrolidine-2-carboxamide]",> 10,,> 100,A (“A” indicates maximum degradation ≥ 75%)
"Cc1ncsc1-c1ccc(CNC(=O)[C@@H]2C[C@@H](O)CN2C(=O)[C@@H](NC(=O)CCCCCNCCC(=O)N2CC(c3c[nH]c4nnc(-c5ccccc5O)cc34)C2)C(C)(C)C)cc1 (racemic) [Compound 57, (2S,4R)-4-hydroxy-1-((S)-2-(6-((3-(3-(3-(2-hydroxyphenyl)-7H-pyrrolo[2,3-c]pyridazin-5-yl)azetidin-1-yl)-3-oxopropyl)amino)hexanamido)-3,3-dimethylbutanoyl)-N-(4-(4-methylthiazol-5-yl)benzyl)pyrrolidine-2-carboxamide]",,< 50,,C (“C” indicates maximum degradation < 50%)
"Cc1ncsc1-c1ccc([C@H](C)NC(=O)[C@@H]2C[C@@H](O)CN2C(=O)[C@@H](c2cc(N(C)CCN3CC4(Cc5cc(-c6ccccc6O)nnc5N4)C3)no2)C(C)C)cc1 (racemic) [Compound 87, (2S,4R)-4-hydroxy-1-((R)-2-(3-((2-(3′-(2-hydroxyphenyl)-5′,7′-dihydrospiro[azetidine-3,6′-pyrrolo[2,3-c]pyridazin]-1-yl)ethyl)(methyl)amino)isoxazol-5-yl)-3-methylbutanoyl)-N-((S)-1-(4-(4-methylthiazol-5-yl)phenyl)ethyl)pyrrolidine-2-carboxamide]",,< 50,,C (“C” indicates maximum degradation < 50%)
"Cc1ncsc1-c1ccc([C@H](C)NC(=O)[C@@H]2C[C@@H](O)CN2C(=O)[C@@H](c2cc(OCCN3C[C@@H]4[C@H](C3)[C@H]4c3cc4cc(-c5cccc(Cl)c5O)nnc4[nH]3)no2)C(C)C)cc1 (racemic) [Compound 110, (2S,4R)-1-((R)-2-(3-(2-((1R,5S,6R)-6-(3-(3-chloro-2-hydroxyphenyl)-7H-pyrrolo[2,3-c]pyridazin-6-yl)-3-azabicyclo[3.1.0]hexan-3-yl)ethoxy)isoxazol-5-yl)-3-methylbutanoyl)-4-hydroxy-N-((S)-1-(4-(4-methylthiazol-5-yl)phenyl)ethyl)pyrrolidine-2-carboxamide]",> 10,< 50,,A (“A” indicates maximum degradation ≥ 75%)

# Continued, in another order:
DC50 (HiBit-BRM fusion protein) [nM],Dmax [1] [%],DC50 [1] [nM],Compound,BRM HiBit Degradation Maximum (%) (HiBit-BRM fusion protein)
> 100,> 50,> 1000,"Cc1ncsc1-c1ccc([C@H](C)NC(=O)[C@@H]2C[C@@H](O)CN2C(=O)[C@@H](c2cc(N3CCC(CN[C@@H]4CCc5[nH]c6nnc(-c7ccccc7O)cc6c5C4)CC3)no2)C(C)C)cc1 (single isomer, unassigned) [Compound 173]",A (“A” indicates maximum degradation ≥ 75%)
> 100,< 50,,"Cc1ncsc1-c1ccc(CNC(=O)[C@@H]2C[C@@H](O)CN2C(=O)[C@@H](NC(=O)CCCNC(=O)[C@@H]2CCc3[nH]c4nnc(-c5ccccc5O)cc4c3C2)C(C)(C)C)cc1 (single isomer, unassigned) [Compound 196]",B (“B” indicates maximum degradation ≥ 50%)
> 10,> 50,> 100,"Cc1ncsc1-c1ccc([C@H](C)NC(=O)[C@@H]2C[C@@H](O)CN2C(=O)C(c2cc(C3CCN(C(=O)[C@H]4CCc5[nH]c6nnc(-c7ccccc7O)cc6c5C4)CC3)no2)C(C)C)cc1 (single isomer, unassigned) [Compound 147]",A (“A” indicates maximum degradation ≥ 75%)
,< 50,,"Cc1ncsc1-c1ccc(CNC(=O)[C@@H]2C[C@@H](O)CN2C(=O)[C@@H](NC(=O)CCC(=O)NC23CC(c4cc5cc(-c6ccccc6O)nnc5[nH]4)(C2)C3)C(C)(C)C)cc1 (racemic) [Compound 298, N1-((S)-1-((2S,4R)-4-hydroxy-2-((4-(4-methylthiazol-5-yl)benzyl)carbamoyl)pyrrolidin-1-yl)-3,3-dimethyl-1-oxobutan-2-yl)-N4-(3-(3-(2-hydroxyphenyl)-7H-pyrrolo[2,3-c]pyridazin-6-yl)bicyclo[1.1.1]pentan-1-yl)succinamide]",C (“C” indicates maximum degradation < 50%)
> 10,< 50,,"Cc1ncsc1-c1ccc([C@H](C)NC(=O)[C@@H]2C[C@@H](O)CN2C(=O)[C@@H](c2cc(OCCN3CCC[C@H](c4c[nH]c5nnc(-c6ccccc6O)cc45)C3)no2)C(C)C)cc1 (racemic) [Compound 291, (2S,4R)-4-hydroxy-1-((R)-2-(3-(2-((R)-3-(3-(2-hydroxyphenyl)-7H-pyrrolo[2,3-c]pyridazin-5-yl)piperidin-1-yl)ethoxy)isoxazol-5-yl)-3-methylbutanoyl)-N-((S)-1-(4-(4-methylthiazol-5-yl)phenyl)ethyl)pyrrolidine-2-carboxamide]",B (“B” indicates maximum degradation ≥ 50%)

# Source: patent US20240024488A1, “COMPOUNDS AND USES THEREOF” (Foghorn Therapeutics Inc., priority 2020, published 2024)
